We go through 9 compounds from patent US20060160847A1, “2,4-Dihalogen-6-(c2-c3alkyl)-phenyl substituted tetramic acid derivatives” (priority 2003, published 2006).

Structures are written as SMILES.

Holding throughout (assay type): in vivo
Test [1] deals with greenhouse red spider mite (Tetranychus urticae). In words: Tetranychus test (OP-resistant/dip treatment). The conditions noted are these: 1.6 ppm active compound, Tetranychus urticae on dipped bean plants. Here is the method:
Tetranychus Test (OP-Resistant/Dip Treatment)
(§1) To produce a suitable preparation of active compound, 1 part by weight of active compound is mixed with the stated amounts of solvent and emulsifier, and the concentrate is diluted with emulsifier-containing water to the desired concentration.
Bean plants (Phaseolus vulgaris) which are heavily infested by all stages of the greenhouse red spider mite (Tetranychus urticae) are dipped into a preparation of active compound of the desired concentration.
After the desired period of time, the effect in % is determined. 100% means that all spider mites have been killed; 0% means that none of the spider mites have been killed.

Test [2] concerns green rice leaf hopper (Nephotettix cincticeps). In words: Nephotettix test. The conditions noted are these: rice seedlings dipped. On the procedure: as §1
Rice seedlings (Oryza satina) are treated by being dipped into the preparation of active compound of the desired concentration and are populated wraith the green rice leaf hopper (Nephotettix cincticeps) while the leafs are still moist.
After the desired period of time, the kill in % is determined. 100% means that all leaf hoppers have been killed; 0% means that none of the leaf hoppers have been killed.

Test [3] relates to Test plants. In words: Post-emergence test. The conditions noted are these: greenhouse. On the procedure:
To produce a suitable preparation of active compound, 1 part by weight of active compound is mixed with the stated amount of solvent, the stated amount of emulsifier is added and the concentrate is diluted with water to the desired concentration.
Test plants of a height of 5-15 cm are sprayed with the preparation of active compounds such that the particular amounts of active compound desired are applied per unit area. The concentration of the spray liquor is chosen such that the particular amounts of active compound desired are applied in 1000 l of water/ha.
After three weeks, the degree of damage to the plants is rated in % damage in comparison to the development of the untreated control.
0%=no effect (like untreated control)

Test [4] deals with Test plants. In words: Pre-emergence test. The conditions noted are these: greenhouse. On the procedure:
Pre-Emergence Test [[[…]]] To produce a suitable preparation of active compound, 1 part by weight of active compound is mixed with the stated amount of solvent, the stated amount of emulsifier is added and the concentrate is diluted with water to the desired concentration. Seeds of the test plants are sown in normal soil. After about 24 hours, the soil is sprayed with the preparation of active compound such that the particular amounts of active compound desired are applied per unit area. The concentration of the spray liquor is chosen such that the particular amounts of active compound desired are applied in 1000 l of water/ha. After three weeks, the degree of damage to the plants is rated in % damage in comparison to the development of the untreated control. The figures denote: 0%=no effect (like untreated control) 100%=total destruction

The test system of test [5] is larvae of the mustard beetle (Phaedon cochleariae). In words: Phaedon larvae test. The conditions noted are these: 100 ppm active compound, Phaedon cochleariae larvae on dipped cabbage leaves. On the procedure:
Phaedon Larvae Test [[[…]]] To produce a suitable preparation of active compound, 1 part by weight of active compound is mixed with the stated amounts of solvent and emulsifier, and the concentrate is diluted with emulsifier-containing water to the desired concentration. Cabbage leaves (Brassica oleracea) are treated by being dipped into the preparation of active compound of the desired concentration and are populated with larvae of the mustard beetle (Phaedon cochleariae) while the leaves are still moist. After the desired period of time, the kill in % is determined. 100% means that all beetle larvae have been killed; 0% means that none of the beetle larvae have been killed.

Test [6] relates to white fly (Bemisia tabaci) eggs, larvae and puparia. In words: Bemisia test. The conditions noted are these: active compound concentration 40 ppm, infested cotton plants sprayed. Here is the method: Bemisia Test [table] To produce a suitable preparation of active compound, 1 part by weight of active compound is mixed with the stated amounts of solvent and emulsifier, and the concentrate is diluted with water to the desired concentration. Cotton plants (Gossypium hirsutum) which are infested by white fly (Bemisia tabaci) eggs, larvae and puparia are sprayed with the preparation of active compound of the desired concentration. After the desired period of time, the kill in % is determined. 100% means that all animals have been killed; 0% means that none of the animals have been killed.

In test [7] the test system is green peach aphid (Myzus persicae). As to the kind of experiment: Myzus test. The conditions noted are these: infested cabbage leaves dipped. On the procedure: (§2) Myzus Test [table] To produce a suitable preparation of active compound, 1 part by weight of active compound is mixed with the stated amounts of solvent and emulsifier, and the concentrate is diluted with emulsifier-containing water to the desired concentration. Cabbage leaves (Brassica oleracea) which are heavily infested by the green peach aphid (Myzus persicae) are treated by being dipped into the preparation of active compound of the desired concentration. After the desired period of time, the kill in % is determined. 100% means that all aphids have been killed; 0% means that none of the aphids have been killed.

Test [8] has as its system cotton aphids (Aphis gossypii). In words: Aphis gossypii test. The conditions noted are these: active compound concentration 200 ppm, infested cotton leaves dipped. On the procedure:
as §2, with “Aphis Gossypii” for “Myzus”, “Cotton” for “Cabbage”, “(Gossypium hirsutuni)” for “(Brassica oleracea)”, “cotton aphids (Aphis gossypii)” for “the green peach aphid (Myzus persicae)”

[9] abbreviates: active compound concentration 8 ppm.

As to `CCc1cc(Cl)cc(Br)c1C1=C(O)C(C)(C)NC1=O` [Ex. I-a-11], the “Kill rate in % after 14d” value in test [1] was found to be 80%. In addition, the “Kill rate in % after 6^d” value in test [2] (active compound concentration 10 ppm) is 100%. Moreover, in the test with Test plants [3] (250 g of a.i./ha), the “% damage, Alopecurus” value is listed as 100%; the “% damage, Setaria” value stood at 100%; the “% damage, sugar beet” value came out at 0%.

Consider `CCc1cc(Cl)cc(Br)c1C1=C(O)C2(CCC(OC)CC2)NC1=O` (single isomer, unassigned) [Ex. I-a-10], for which, in the test on Test plants [4] (125 g of a.i./ha), the “% damage, Alopecurus” value was 100%; the “% damage, Avena fatua” value was 90%; the “% damage, Bromus” value was 90%; the “% damage, Digitaria” value is given as 100%. For the same compound, the “% damage, soybean” value in the test with Test plants [4] (125 g of a.i./ha) is recorded as 0%. In the test on Test plants [3] (30 g of a.i./ha), the “% damage, Alopecurus” value is on record as 95%; the “% damage, Avena fatua” value was 95%; the “% damage, Bromus” value came out at 90%; the “% damage, Lolium” value came to 95%. Besides, in the test with Test plants [3] (30 g of a.i./ha), the “% damage, Setaria” value turned out to be 100% and the “% damage, sugar beet” value came to 0%. Besides, the “% damage, Digitaria” value in the test on Test plants [3] (30 g of a.i./ha, Digitaria) is recorded as 100%.

As to `CCc1cc(Br)cc(Cl)c1C1=C(O)C2(CCC(C)CC2)NC1=O` (single isomer, unassigned) [Ex. I-a-6], in the test on Test plants [4] (60 g of a.i./ha), the “% damage, Avena fatua” value is given as 90%; the “% damage, Echinochloa” value is recorded as 100%; the “% damage, Lolium” value came out at 95%; the “% damage, soybean” value was 0%. Moreover, the “% damage, Veronica” value in the test on Test plants [4] (60 g of a.i./ha, Veronica) is on record as 100%. In the test with Test plants [4] (60 g of a.i./ha, wheat), the “% damage, wheat” value was 0%. Besides, in the test on Test plants [3] (60 g of a.i./ha), the “% damage, Abutilon” value was 70%; the “% damage, Echinochloa” value is given as 95%; the “% damage, Lolium” value was 90%; the “% damage, Setaria” value is listed as 100%. In addition, in the test on Test plants [3] (60 g of a.i./ha), the “% damage, Sorghum” value turned out to be 90%.

Turning to `CCc1cc(Cl)cc(Cl)c1C1=C(O)C2(CCOCC2)NC1=O` [Ex. I-a-5], in the test on Test plants [3] (250 g of a.i./ha), the “% damage, Alopecurus” value is on record as 95%; the “% damage, Avena fatua” value is listed as 100%; the “% damage, Setaria” value was determined as 100%; the “% damage, Sinapis” value is listed as 70%.

As to `CCOCC(=O)OC1=C(c2c(Cl)cc(Br)cc2CC)C(=O)NC12CCC(C)CC2` (single isomer, unassigned) [Ex. I-b-3], in test [2] (active compound concentration 0.1 ppm), the “Kill rate in % after 6^d” value was 40%. Further, the “Kill rate in % after 7d” value in test [5] is 100%.

As for `CCc1cc(Br)cc(Cl)c1C1=C(OC(=O)C(C)C)C2(CCC(C)CC2)NC1=O` (single isomer, unassigned) [Ex. I-b-2], in the test on Test plants [4] (30 g of a.i./ha), the “% damage, Digitaria” value is given as 70%; the “% damage, Echinochloa” value is reported as 70%; the “% damage, Lolium” value amounted to 95%; the “% damage, soybean” value is 0%. Moreover, in the test on Test plants [4] (30 g of a.i./ha, corn), the “% damage, corn” value was 0%. The “Kill rate in % after 10^d” value in test [6] was determined as 100%.

Consider `CCc1cc(Br)cc(Cl)c1C1=C(O)C2(CCC(OC)CC2)NC1=O` (single isomer, unassigned) [Ex. I-a-7], for which, in the test with Test plants [4] (125 g of a.i./ha), the “% damage, Avena fatua” value amounted to 95%; the “% damage, Bromus” value worked out at 100%; the “% damage, Echinochloa” value is reported as 100%. The “% damage, Matricaria” value in the test with Test plants [4] (125 g of a.i./ha, Matricaria) is reported as 80%. For the same compound, in the test with Test plants [3] (250 g of a.i./ha), the “% damage, Abutilon” value turned out to be 80% and the “% damage, sugar beet” value turned out to be 0%. The “% damage, Amaranthus” value in the test on Test plants [3] (250 g of a.i./ha, Amaranthus) is reported as 70%. Besides, in the test with Test plants [3] (250 g of a.i./ha, Cyperus), the “% damage, Cyperus” value is 80%. Also, the “Kill rate in % after 6^d” value in test [7] (active compound concentration 1.6 ppm) came out at 65%.

As to `CCc1cc(Cl)cc(Cl)c1C1=C(O)C2(CCC(C)CC2)NC1=O` (single isomer, unassigned) [Ex. I-a-2], in the test on Test plants [3] (125 g of a.i./ha), the “% damage, Bromus” value was found to be 90%; the “% damage, Echinochloa” value was 100%; the “% damage, Lolium” value is reported as 100%; the “% damage, Sorghum” value is 100%. Besides, the “% damage, cotton” value in the test on Test plants [3] (125 g of a.i./ha, cotton) came out at 0%. Besides, the “Kill rate in % after 6^d” value in test [8] came out at 90%. Also, in test [7] (setting [9]), the “Kill rate in % after 6^d” value is reported as 95%.

Turning to `CCc1cc(Cl)cc(Cl)c1C1=C(O)C2(CCC(OC)CC2)NC1=O` (single isomer, unassigned) [Ex. I-a-3], in the test on Test plants [4] (30 g of a.i./ha), the “% damage, Alopecurus” value came to 100%; the “% damage, Avena fatua” value is listed as 70%; the “% damage, Digitaria” value turned out to be 100%; the “% damage, Lolium” value is reported as 100%. Further, the “% damage, Setaria” value in the test on Test plants [4] (30 g of a.i./ha, Setaria) is listed as 100%. The “% damage, cotton” value with Test plants [4] (30 g of a.i./ha, cotton) is recorded as 0%. The “% damage, sugar beet” value in the test on Test plants [4] (30 g of a.i./ha, sugar beet) is recorded as 0%. In addition, in the test on Test plants [3] (250 g of a.i./ha), the “% damage, Alopecurus” value is 100%; the “% damage, Avena fatua” value was determined as 100%; the “% damage, Sinapis” value is on record as 80%. Moreover, the “Kill rate in % after 6^d” value in test [7] (setting [9]) is listed as 85%.
